Measured values taken from patent US7935714B2, “Compositions for sleeping disorders” (Bright Future Pharmaceutical Laboratories, priority 2004, dated 2011).

Test system: male Wistar rats
Experiment: Telemetry EEG study of NREM sleep (sleep latency and quality) in freely moving male Wistar rats
Assay type: in vivo
Details: for sleep latency / NREM sleep during the second hour following treatment / NREM sleep within the first hour following treatment: zolpidem
Method: Telemetric EEG, activity and temperature monitors were surgically implanted sub-coetaneously onto the lower backs of male Wistar rats, under ketamie and xyalsine (75/10 mg/kg, i.p.) anaesthesia. A skin incision was made above the scull and the transmitter tunnelled subcutaneously from the neck to the lower back with blunted scissors. The EEG leads were placed into two 0.5 mm holes that were drilled stererotaxically 2 mm anterior to Lambda and 1 mm to the left and right of centre, so that contact was made with the durra, and fixed with quick drying glue and reinforced with dental cement. The incision was then closed with 4-0 silk suture and post operative temgesic applied for pain relief. Following a 4 week recovery and acclimatization period in individually housed ventilated cages (12 hour light/12 hour dark cycle 20-25° C.), the rats were orally treated with either test compounds, positive controls or vehicle 45-30 min prior commencement of their light cycle (sleeping period). A Latin square dosing regiment was used where each rat received each of the drugs tested in random order with 4 days clearance time between each dosing. EEG waveforms were analysed using a power spectral analysis of each 5 second epoch and scored manually into % duration of NREM sleep for each hour over a 12 hour period. […] Data were analysed using Two-way ANOVA versus vehicle treatment (*p<0.05, n=7).

[1] = p.o., zopiclone 5 mg/kg, Compound Mixture 50 mg/kg, compared to vehicle
[2] = p.o., zopiclone 5 mg/kg, Compound Mixture 50 mg/kg, versus vehicle

SMILES | NREM sleep during the remainder of the sleep period (5 mg/kg p.o., compared to vehicle) | sleep latency [1] | NREM sleep during the second hour following treatment [2] | NREM sleep within the first hour following treatment [2] | sleep quality during the 6th hour of sleep (5 mg/kg p.o., versus vehicle) | NREM sleep duration during the 8th hour [2]
Cc1ccc(-c2nc3ccc(C)cn3c2CC(=O)N(C)C)cc1 [zolpidem] | failed to significantly improve NREM sleep | significantly reduce sleep latency | not significantly different from vehicle treatment | significantly increased | – | –
CN1CCN(C(=O)OC2c3nccnc3C(=O)N2c2ccc(Cl)cn2)CC1 (stereo not drawn) [zopiclone] | – | significantly reduce sleep latency | not significantly different from vehicle treatment | significantly increased | negative effect on sleep quality | significantly improved
